Source: patent US20250092016A1, “COMPOUNDS AND COMPOSITIONS FOR THE TREATMENT OF CORONAVIRAL RELATED DISEASES” (priority 2021, published 2025)
Where two headings read alike, the source gives them in different places.

Molecular target: SARS-CoV-2 main protease (M^pro) (Severe acute respiratory syndrome coronavirus 2, UniProt P0DTD1)
Assay: Rapid-Fire MS Biochemical Assay measuring Mpro activity (5 nM Mpro)
Conditions: Mpro inhibition, 5 μM substrate peptide, 120 min
[1] = Table 1B, read-out: Rapid-Fire Assay IC50
[2] = Rapid-Fire Assay IC50, Table 1B

| Compound | IC50 [1] | IC50 [2] |
| --- | --- | --- |
| N#C[C@@H]1CN([C@@H]2CCN(CCO)C2)C(=O)N1c1cncc2ccccc12 (single isomer, unassigned) [Compound 46b] | > 1 µM | – |
| COc1ccc(C(F)(F)F)nc1N1C[C@H](C#N)N(c2cncc3ccccc23)C1=O (single isomer, unassigned) [Compound 47a] | 0.02 to 0.2 µM | – |
| COc1ccc(C(F)(F)F)nc1N1C[C@@H](C#N)N(c2cncc3ccccc23)C1=O (single isomer, unassigned) [Compound 47b] | > 1 µM | – |
| CS(=O)(=O)c1cccc(N2C[C@H](C#N)N(c3cncc4ccccc34)C2=O)c1 (single isomer, unassigned) [Compound 48a] | < 0.02 µM | – |
| CS(=O)(=O)c1cccc(N2C[C@@H](C#N)N(c3cncc4ccccc34)C2=O)c1 (single isomer, unassigned) [Compound 48b] | > 1 µM | – |
| N#C[C@H]1CN(c2nccc(C(F)(F)F)n2)C(=O)N1c1cncc2ccccc12 (single isomer, unassigned) [Compound 49a] | 0.02 to 0.2 µM | – |
| N#C[C@@H]1CN(c2nccc(C(F)(F)F)n2)C(=O)N1c1cncc2ccccc12 (single isomer, unassigned) [Compound 49b] | > 1 µM | – |
| N#Cc1ccc(N2C[C@H](C#N)N(c3cncc4ccccc34)C2=O)cc1 (single isomer, unassigned) [Compound 50a] | < 0.02 µM | – |
| N#Cc1ccc(N2C[C@@H](C#N)N(c3cncc4ccccc34)C2=O)cc1 (single isomer, unassigned) [Compound 50b] | > 1 µM | – |
| N#C[C@H]1CN(c2cccc(C(F)(F)F)n2)C(=O)N1c1cncc2ccccc12 (single isomer, unassigned) [Compound 51a] | 0.02 to 0.2 µM | – |
| N#C[C@@H]1CN(c2cccc(C(F)(F)F)n2)C(=O)N1c1cncc2ccccc12 (single isomer, unassigned) [Compound 51b] | > 1 µM | – |
| N#Cc1cccc(N2C[C@H](C#N)N(c3cncc4ccccc34)C2=O)c1 (single isomer, unassigned) [Compound 52a] | < 0.02 µM | – |
| N#Cc1cccc(N2C[C@@H](C#N)N(c3cncc4ccccc34)C2=O)c1 (single isomer, unassigned) [Compound 52b] | 0.2 to 1 µM | – |
| Cc1ccnc(N2C[C@H](C#N)N(c3cncc4ccccc34)C2=O)n1 (single isomer, unassigned) [Compound 53a] | 0.2 to 1 µM | – |
| Cc1ccnc(N2C[C@@H](C#N)N(c3cncc4ccccc34)C2=O)n1 (single isomer, unassigned) [Compound 53b] | > 1 µM | – |
| N#C[C@H]1CN(c2cc(Cl)cnn2)C(=O)N1c1cncc2ccccc12 (single isomer, unassigned) [Compound 54a] | 0.02 to 0.2 µM | – |
| N#C[C@@H]1CN(c2cc(Cl)cnn2)C(=O)N1c1cncc2ccccc12 (single isomer, unassigned) [Compound 54b] | 0.2 to 1 µM | – |
| N#C[C@H]1CN(c2ccc(F)nc2)C(=O)N1c1cncc2ccccc12 (single isomer, unassigned) [Compound 55a] | 0.02 to 0.2 µM | – |
| N#C[C@@H]1CN(c2ccc(F)nc2)C(=O)N1c1cncc2ccccc12 (single isomer, unassigned) [Compound 55b] | > 1 µM | – |
| N#C[C@H]1CN(c2ccccc2F)C(=O)N1c1cncc2ccccc12 (single isomer, unassigned) [Compound 56a] | 0.02 to 0.2 µM | – |
| N#C[C@@H]1CN(c2ccccc2F)C(=O)N1c1cncc2ccccc12 (single isomer, unassigned) [Compound 56b] | > 1 µM | – |

| Compound | IC50 [1] | IC50 [2] |
| --- | --- | --- |
| N#C[C@H]1CN(c2ccnc(C(F)(F)F)c2)C(=O)N1c1cncc2ccccc12 (single isomer, unassigned) [Compound 57a] | < 0.02 µM | – |
| N#C[C@@H]1CN(c2ccnc(C(F)(F)F)c2)C(=O)N1c1cncc2ccccc12 (single isomer, unassigned) [Compound 57b] | > 1 µM | – |
| COc1cc(Cl)cnc1N1C[C@H](C#N)N(c2cncc3ccccc23)C1=O (single isomer, unassigned) [Compound 58a] | 0.02 to 0.2 µM | – |
| COc1cc(Cl)cnc1N1C[C@@H](C#N)N(c2cncc3ccccc23)C1=O (single isomer, unassigned) [Compound 58b] | > 1 µM | – |
| N#C[C@H]1CN(c2cc(OC(F)F)ccc2F)C(=O)N1c1cncc2ccccc12 (single isomer, unassigned) [Compound 59a] | 0.02 to 0.2 µM | – |
| N#C[C@@H]1CN(c2cc(OC(F)F)ccc2F)C(=O)N1c1cncc2ccccc12 (single isomer, unassigned) [Compound 59b] | > 1 µM | – |
| N#Cc1cc(Cl)ccc1N1C[C@H](C#N)N(c2cncc3ccccc23)C1=O (single isomer, unassigned) [Compound 60a] | < 0.02 µM | – |
| N#Cc1cc(Cl)ccc1N1C[C@@H](C#N)N(c2cncc3ccccc23)C1=O (single isomer, unassigned) [Compound 60b] | 0.2 to 1 µM | – |
| N#C[C@H]1CN(c2cccc(F)n2)C(=O)N1c1cncc2ccccc12 (single isomer, unassigned) [Compound 61a] | 0.02 to 0.2 µM | – |
| N#C[C@@H]1CN(c2cccc(F)n2)C(=O)N1c1cncc2ccccc12 (single isomer, unassigned) [Compound 61b] | > 1 µM | – |
| Cc1cnc(C(F)(F)F)nc1N1C[C@H](C#N)N(c2cncc3ccccc23)C1=O (single isomer, unassigned) [Compound 62a] | 0.2 to 1 µM | – |
| Cc1cnc(C(F)(F)F)nc1N1C[C@@H](C#N)N(c2cncc3ccccc23)C1=O (single isomer, unassigned) [Compound 62b] | > 1 µM | – |
| N#C[C@H]1CN(c2cccc3cn[nH]c23)C(=O)N1c1cncc2ccccc12 (single isomer, unassigned) [Compound 63a] | < 0.02 µM | – |
| N#C[C@@H]1CN(c2cccc3cn[nH]c23)C(=O)N1c1cncc2ccccc12 (single isomer, unassigned) [Compound 63b] | > 1 µM | – |
| CC(C)n1cc(N2C[C@H](C#N)N(c3cncc4ccccc34)C2=O)cn1 (single isomer, unassigned) [Compound 64a] | < 0.02 µM | – |
| CC(C)n1cc(N2C[C@@H](C#N)N(c3cncc4ccccc34)C2=O)cn1 (single isomer, unassigned) [Compound 64b] | > 1 µM | – |
| Cn1cc(N2C[C@H](C#N)N(c3cncc4ccccc34)C2=O)cn1 (single isomer, unassigned) [Compound 65a] | 0.02 to 0.2 µM | – |
| Cn1cc(N2C[C@@H](C#N)N(c3cncc4ccccc34)C2=O)cn1 (single isomer, unassigned) [Compound 65b] | > 1 µM | – |
| N#C[C@H]1CN(c2ccc(F)cc2F)C(=O)N1c1cncc2ccccc12 (single isomer, unassigned) [Compound 66a] | < 0.02 µM | – |
| N#C[C@@H]1CN(c2ccc(F)cc2F)C(=O)N1c1cncc2ccccc12 (single isomer, unassigned) [Compound 66b] | > 1 µM | – |
| Cn1ccc(N2C[C@H](C#N)N(c3cncc4ccccc34)C2=O)cc1=O (single isomer, unassigned) [Compound 67a] | 0.02 to 0.2 µM | – |

| Compound | IC50 [1] | IC50 [2] |
| --- | --- | --- |
| Cn1ccc(N2C[C@@H](C#N)N(c3cncc4ccccc34)C2=O)cc1=O (single isomer, unassigned) [Compound 67b] | > 1 µM | – |
| N#C[C@H]1CN(c2ncc(C(F)(F)F)[nH]2)C(=O)N1c1cncc2ccccc12 (single isomer, unassigned) [Compound 68a] | 0.02 to 0.2 µM | – |
| N#C[C@@H]1CN(c2ncc(C(F)(F)F)[nH]2)C(=O)N1c1cncc2ccccc12 (single isomer, unassigned) [Compound 68b] | > 1 µM | – |
| CC(C)(O)c1cccc(N2C[C@H](C#N)N(c3cncc4ccccc34)C2=O)c1 (single isomer, unassigned) [Compound 69a] | 0.02 to 0.2 µM | – |
| CC(C)(O)c1cccc(N2C[C@@H](C#N)N(c3cncc4ccccc34)C2=O)c1 (single isomer, unassigned) [Compound 69b] | > 1 µM | – |
| Cc1cnc(C(F)(F)F)cc1N1C[C@H](C#N)N(c2cncc3ccccc23)C1=O (single isomer, unassigned) [Compound 70a] | < 0.02 µM | – |
| Cc1cnc(C(F)(F)F)cc1N1C[C@@H](C#N)N(c2cncc3ccccc23)C1=O (single isomer, unassigned) [Compound 70b] | > 1 µM | – |
| N#C[C@H]1CN(c2ccc(OC(F)F)cc2)C(=O)N1c1cncc2ccccc12 (single isomer, unassigned) [Compound 71a] | < 0.02 µM | – |
| N#C[C@@H]1CN(c2ccc(OC(F)F)cc2)C(=O)N1c1cncc2ccccc12 (single isomer, unassigned) [Compound 71b] | > 1 µM | – |
| N#C[C@H]1CN(c2ccc(F)c(F)c2)C(=O)N1c1cncc2ccccc12 (single isomer, unassigned) [Compound 72a] | < 0.02 µM | – |
| N#C[C@@H]1CN(c2ccc(F)c(F)c2)C(=O)N1c1cncc2ccccc12 (single isomer, unassigned) [Compound 72b] | 0.2 to 1 µM | – |
| N#Cc1ccc(N2C[C@H](C#N)N(c3cncc4ccccc34)C2=O)cc1F (single isomer, unassigned) [Compound 73a] | – | < 0.02 µM |
| N#Cc1ccc(N2C[C@@H](C#N)N(c3cncc4ccccc34)C2=O)cc1F (single isomer, unassigned) [Compound 73b] | – | 0.2 to 1 µM |
| Cc1ncccc1N1C[C@H](C#N)N(c2cncc3ccccc23)C1=O (single isomer, unassigned) [Compound 74a] | 0.2 to 1 µM | – |
| Cc1ncccc1N1C[C@@H](C#N)N(c2cncc3ccccc23)C1=O (single isomer, unassigned) [Compound 74b] | > 1 µM | – |
| N#C[C@H]1CN(c2ccc(C(F)F)nc2)C(=O)N1c1cncc2ccccc12 (single isomer, unassigned) [Compound 75a] | < 0.02 µM | – |
| N#C[C@@H]1CN(c2ccc(C(F)F)nc2)C(=O)N1c1cncc2ccccc12 (single isomer, unassigned) [Compound 75b] | > 1 µM | – |
| N#C[C@H]1CN(c2cccc(F)c2)C(=O)N1c1cncc2ccccc12 (single isomer, unassigned) [Compound 76a] | < 0.02 µM | – |
| N#C[C@@H]1CN(c2cccc(F)c2)C(=O)N1c1cncc2ccccc12 (single isomer, unassigned) [Compound 76b] | > 1 µM | – |
| N#C[C@H]1CN(c2cnc(C(F)(F)F)c(F)c2)C(=O)N1c1cncc2ccccc12 (single isomer, unassigned) [Compound 77a] | < 0.02 µM | – |
